{
  "source": "patent EP1007024B1",
  "about": "(Pfizer Products Inc., priority 1997, dated 1999)",
  "key": {"[1]": {"experiment": "Screening test for inhibition of precipitation or gelation of sertraline lactate when chloride is added", "assay_type": "physicochemical", "procedure": "Sodium chloride was then added (as a concentrated solution) and the result observed. An excipient was considered beneficial if the solution remained clear and fluid. The more chloride that could be added to an excipient solution with the solution remaining dear, the more beneficial was the excipient."}, "physchem [2]": {"experiment": "physchem", "settings": "water"}, "[3]": {"experiment": "Screening of solubilizers for sertraline lactate solubility with and without chloride", "settings": "water"}, "physchem [4]": {"experiment": "physchem", "settings": "water, Sertraline Lactate Solubility, in water, excipient None"}, "[5]": {"settings": "oral administration of known immediate-release dosage forms, plasma; cited from earlier work"}, "[6]": {"experiment": "Side effects by visual analogue scales and PK/PD plots (Study I, Study II)", "assay_type": "in vivo, human", "procedure": "(§1) In a subset of a larger double-blind, randomized, placebo-controlled parallel group study, healthy male human subjects were divided into two groups (Study 1). […] The tablets were administered with 50 ml water. Group B received two placebo tablets. All subjects were dosed after an overnight fast.\nPrior to dosing and each blood sampling time, each subject filled out a questionnaire, which consisted of a series of \"Visual Analogue Scales\" in which the subject was required to rate, on a scale of 0-10, the severity of certain potential side effects. The subjects were instructed that \"0\" indicated an absent effect and \"10\" indicated the worst possible effect The subjects were instructed to interpolate between 0 and 10 for moderate side effects.\nA total of 30 subjects completed Study I: 15 each in Groups A and B. For each side effect evaluated at 30 time points, a total of 900 individual visual-analogue-scale evaluations were obtained."}, "[7]": {"settings": "male, human, in vivo", "procedure": "as §1\n(§2) Analysis was carried out by capillary gas chromatography with electron capture detection. […] Tmax is the time at which Cmax is achieved.\n(§3) The data from these four subjects were not included in the pharmacokinetic averages."}, "clinical": {"experiment": "clinical", "settings": "human, in vivo, 200 mg", "procedure": "as §1, §2, §3"}, "[8]": {"experiment": "Pharmacokinetics of 200 mg sertraline delivered to various portions of the gastrointestinal tract (four-way crossover)", "assay_type": "in vivo", "settings": "human, plasma", "procedure": "Dosing was via (1) oral tablets, or (2) infusion of a solution through a nasoenteric tube into the stomach, duodenum, or ileocecal region of the small intestine, or (3) infusion into the transverse colon via anal intubation.\nThe infusions were administered as a 2 mg/ml solution at a rate of 20 ml/min for 5 min.\nAnalysis was carried out by capillary gas chromatography with electron capture detection."}, "[9]": {"settings": "Group A, Ileocecal Infusion of 2 mg/ml solution"}, "[10]": {"settings": "Group A, Stomach Infusion of 2 mg/ml solution"}, "[11]": {"settings": "Group B, Colonic Infusion of 2 mg/ml solution"}, "[12]": {"settings": "Group B, Duodenal Infusion of 2 mg/ml solution"}},
  "note": "Counter-ions that a name gives are not always drawn. Like-named read-outs stand apart in the source and are kept apart here.",
  "data": [
    {"smiles": "O=C1O[C@H]([C@@H](O)CO)C(O)=C1O", "note": "[Ascorbic acid]", "values": [
      {"measurement": "Observation After NaCI Addition", "setting": "[1]; sertraline lactate with excipient, NaCl 100 mM", "value": "predpitate"}
    ]},
    {"smiles": "N[C@@H](Cc1c[nH]cn1)C(=O)O", "note": "[Histidine]", "values": [
      {"measurement": "Observation After NaCI Addition", "setting": "[1]; sertraline lactate with excipient, NaCl 150 mM", "value": "slight precipitate"}
    ]},
    {"smiles": "CN[C@H]1CC[C@@H](c2ccc(Cl)c(Cl)c2)c2ccccc21", "note": "[sertraline hydrochloride]", "values": [
      {"measurement": "solubility", "setting": "physchem [2]", "value": 2.5, "unit": "mg/mL"}
    ]},
    {"smiles": "CN[C@H]1CC[C@@H](c2ccc(Cl)c(Cl)c2)c2ccccc21", "note": "[sertraline lactate]", "values": [
      {"measurement": "Observation After NaCI Addition", "setting": "[1]; sertraline lactate in water alone (control), NaCl 38 mM", "value": "gel/precipitate"},
      {"measurement": "solubility", "setting": "[3]", "value": 125, "unit": "mg/mL"},
      {"measurement": "solubility", "setting": "physchem [4]", "value": "~125", "unit": "mg/mL"}
    ]},
    {"smiles": "CN[C@H]1CC[C@@H](c2ccc(Cl)c(Cl)c2)c2ccccc21", "note": "[sertraline]", "values": [
      {"measurement": "Tmax", "setting": "[5]", "value": "6 to 7", "unit": "h"},
      {"measurement": "side effect score for diarrhea vs plasma sertraline concentration curve", "setting": "[6]; Study 1, 200 mg bolus dose", "value": "clockwise hysteresis"},
      {"measurement": "PK/PD plot, average visual analogue score for nausea vs plasma sertraline concentration", "setting": "[6]; Study I, Group A, 200 mg bolus dose, Figure 1", "value": "clockwise hysteresis"},
      {"measurement": "subjects with emesis (regurgitation)", "setting": "[6]; Study II, 200 mg dose group", "value": "Four and four"},
      {"measurement": "average Tmax", "setting": "[7]", "value": 6, "unit": "h"},
      {"measurement": "AUC", "setting": "clinical", "value": 1.74, "unit": "µg·h/mL"},
      {"measurement": "Cmax", "setting": "clinical; male", "value": "~0.07", "unit": "µg/mL"},
      {"measurement": "Cmax", "setting": "[8]; [9]", "value": 0.0273, "unit": "µg/mL"},
      {"measurement": "Tmax", "setting": "[8]; [9]", "value": 5, "unit": "h"},
      {"measurement": "Cmax", "setting": "[8]; [10]", "value": 0.0356, "unit": "µg/mL"},
      {"measurement": "Tmax", "setting": "[8]; [10]", "value": 7, "unit": "h"},
      {"measurement": "Cmax", "setting": "[8]; Group B, Colonic Infusion (transverse colon) of 2 mg/ml solution", "value": 0.0109, "unit": "µg/mL"},
      {"measurement": "AUC", "setting": "[8]; [11]", "value": 0.179, "unit": "µg·h/mL"},
      {"measurement": "Tmax", "setting": "[8]; [11]", "value": 4.4, "unit": "h"},
      {"measurement": "AUC", "setting": "[8]; [12]", "value": 1.27, "unit": "µg·h/mL"},
      {"measurement": "Cmax", "setting": "[8]; [12]", "value": 0.0488, "unit": "µg/mL"},
      {"measurement": "Tmax", "setting": "[8]; [12]", "value": 3.7, "unit": "h"},
      {"measurement": "Cmax", "setting": "[8]; po, Group A, Oral Tablet (two 100 mg immediate release tablets), group average", "value": 0.0399, "unit": "µg/mL"},
      {"measurement": "Tmax", "setting": "[8]; po, Group A, Oral Tablet, group average", "value": 7, "unit": "h"},
      {"measurement": "AUC", "setting": "[8]; po, Group B, Oral Tablet", "value": 1.15, "unit": "µg·h/mL"},
      {"measurement": "Tmax", "setting": "[8]; po, Group B, Oral Tablet", "value": 6.7, "unit": "h"},
      {"measurement": "Cmax", "setting": "[8]; po, Group B, Oral Tablet (two 100 mg immediate release tablets)", "value": 0.0447, "unit": "µg/mL"}
    ]}
  ]
}
